Details of this data set: species or system mouse. The conditions noted are these: female, in vivo. An excerpt:
The biodistribution of [^18F]RM365 was investigated in vivo in mice (n = 4) and rats (n = 2) by dynamic PET imaging studies.
Among others, increasing activity in the duodenum over time and accumulation in the brown adipose tissue (BAT) were observed (Figure S10). In contrast, a slow washout from the salivary glands, muscle, bones, and kidneys could be observed. An initial comparably high TAC peak value with a SUVmean > 4 in the liver, left ventricle (blood), heart wall, and lung followed by a fast washout and a subsequent slower washout phase could be observed. Furthermore, we conclude a mainly hepatic excretion of the activity, as shown by the liver and jejunum TACs in both species and a bladder activity of 0.24 ± 0.19% of injected dose at 60 min in mice (Figures S8 and S10).
In vivo biodistribution studies of [^18F]RM365 were performed in female CD-1 mice (n = 4, 31 ± 3 g) and female Wistar rats (n = 4, 150 ± 11 g). For the uptake studies into the brain, male Wistar rats carrying the stereotactically injected AAV2/7-CaMKII0.4-intron-hCB2R(D80N) (right striatum) and AAV2/7-CaMKII0.4-intron-3flag-eGFP (control/contralateral, left striatum) were used (n = 6; bodyweights were 260 ± 11 g). Data were assessed by dynamic small animal PET (Nanoscan, Mediso, Budapest, Hungary) in 60 min recordings, followed by T1-weighted (GRE, TR/TE = 15.0/2.4 ms, 252/252, FA = 25°) MR imaging with whole-body coils for anatomical correlation and attenuation correction.
The PET scans were performed 3−4 months after the stereotactic injections. […] Nonparametric (semiquantitative) analysis of achieved time–activity curves (TACs) was performed with Microsoft Excel to determine the time to peak, the TAC peak value, and the area under the curve (AUC) [drawing 1] where c (radioactivity) is expressed as the standardized uptake value normalized to the bodyweight in g (SUV). […] Area under the curves (AUCs) and corresponding 95% confidence intervals (CIs, 95%) were calculated with GraphPad Prism (v.8.2) following the assumptions described by Gagnon et al.[39]

Where only a bound is given, the exact number is not on record here.

With `CC1(C)Cc2ccc(C#N)cc2[C@@H]1NC(=O)c1cc2cc([18F])ccc2[nH]1` [[^18F]RM365], the “initial TAC peak value (SUVmean)” value (CD-1 (mice), Wistar (rats), mouse) was > 4. In addition, the SUV in spleen (CD-1, mouse) was 0.7 ± 0.1. Also, for the setting “CD-1, mouse, 60 min”, the bladder activity is reported as 0.24 ± 0.19 % of injected dose.

(Values after publication PMC10614203, “Synthesis, Structure–Activity Relationships, Radiofluorination, and Biological Evaluation of [^18F]RM365, a Novel Radioligand for Imaging the Human Cannabinoid Receptor Type 2 (CB2R) in the Brain with PET” (Journal of Medicinal Chemistry, 2023).)
